Assay results as given in patent US20050153870A1, “Medicinal composition for diagnosis, prevention, or therapy of multiple risk factor syndrome” (priority 2002, published 2005).
Marks after values point to notes of the source that are not given here.

Columns and labels:
Lean = assay: Body weight and blood sugar in Lean mice (Example 7); assay type: in vivo, mouse; conditions: for Body weight / Blood sugar level: in feed for a week (MAC 0.05%, AS-103 0.05%, AR-610 0.1%, AF 0.4%, AC 0.05%); for Body weight: control group 20.9 ± 0.8; for Blood sugar level: control group 211.2 ± 7.8; for Blood sugar level, change vs control group / Body weight, change vs control group: in feed for a week, contents as in table
Method: [The procedure below names another variant; the source lists this variant under the same test.] (§1) Powered feed to which ascofuranone (AF) and ascochlorin (AC) as well as its derivatives, 4-0-methylascochlorin (MAC), 4-0-carboxymethylascochlorin (AS-6), and 4-0-nicotinoyl ascochlorin (AS-103) were added to feed at the proportions shown in the table, and the feed were given to db/db mice for a week and then analyzed for blood sugar decreasing effect (8 mice/group).

[1] = system: Mouse, rat, beagle dog, quail, DOCA hypertension rat; assay: Serum cholesterol decreasing effect; assay type: in vivo; conditions: incl. rat and quail raised with hyperfat feed
Method: The quails are raised by giving a feed containing 2% cholesterol for 9 months to develop hypercholesteremia, and, in the case of the rats, mineral corticoid and saline are administered to allow them to develop heart and blood vessel disease and then hypercholesteremia.

Mouse = assay: Appetite suppressing effect; assay type: in vivo; conditions: mouse fasted 48 hours; 1 to 2 mg/kg perorally one hour before feeding; feed given for 2 hours
Anesthetized rat = assay: Blood pressure decreasing effect, acute test; assay type: in vivo; conditions: 2 mg/kg perorally
Method: Compounds of this series has an antihypertensive effect in various types of test animal models. The antihypertensive effect is confirmed not only in an acute test, in which arterial blood pressure of anesthetized rats and dogs is measured, but also in a chronic test using DOCA hypertensive rats, which are prepared by excising one of the kidneys and administering mineral corticoid and saline thereto, naturally-occurring hypertensive rats, which is an animal morbid model of essential hypertensive disease, and ob/ob mice, which are hereditary diabetic obese […].

Rat = assay: Glucogenesis in the liver; assay type: in vivo; conditions: perorally
Excerpt: Compounds of this series suppresses hepatic glucogenesis which is induced by administration of dexamethazon to a rat. For this reason, it antagonizes the action of glucocorticoid in vivo. The compound further has an effect of suppressing steroid diabetes characterized by polydipsia and polyurea and urine sugar excretion induced by administering cortisol to a rat. […] These facts strongly support that compounds of this series is useful in preventing and/or treating visceral fat syndrome.

db/db mice = assay: Blood sugar decreasing effect in db/db mice (Example 7); assay type: in vivo, mouse; conditions: for Body weight / Blood sugar level: in feed for a week (MAC 0.05%, AS-103 0.05%, AR-610 0.1%, AF 0.4%, AC 0.05%); for Body weight: control group 44.6 ± 0.9; for Blood sugar level: control group 549.8 ± 21.8; for Blood sugar level, change vs control group / Body weight, change vs control group: in feed for a week, contents as in table
Method: as §1

[2] = system: SHR rat of high-incidence fat deposition group; assay: Fat deposition on the mesenteric artery; assay type: in vivo; conditions: perorally

SMILES	Body weight (Lean)	Blood sugar level (Lean)	Blood sugar level, change vs control group (Lean)	Body weight, change vs control group (Lean)	serum cholesterol decreasing effect [1]	amount of feed (appetite suppressing effect) (Mouse)	decrease of average blood pressure of the carotid artery (Anesthetized rat)	glucogenesis performed in the liver (Rat)	Body weight (db/db mice)	Blood sugar level (db/db mice)	Blood sugar level, change vs control group (db/db mice)	Body weight, change vs control group (db/db mice)	fat deposition in a ring form on the mesenteric artery [2]
CC(/C=C/[C@@]1(C)[C@H](C)CCC(=O)[C@@H]1C)=C\Cc1c(O)c(Cl)c(C)c(C=O)c1O [AC, ascochlorin]	16.1 ± 0.3 g	184.8 ± 10.9 mg/dL	−12.5%**	−23.0%**	carboxymethylascochlorin, and ascofuranone exhibits an effect of decreasing serum	feed is suppressed in a dose dependent manner.	decreases by 20 to 30 mmHg.	performed in the liver is suppressed.	38.9 ± 1.8 g	262.1 ± 11.8 mg/dL	−52.3%**	−12.8%**	–
C/C(=C\Cc1c(O)c(Cl)c(C)c(C=O)c1O)CC/C=C(\C)[C@@H]1CC(=O)C(C)(C)O1 [AF, ascofuranone]	21.8 ± 0.4 g	161.1 ± 8.3 mg/dL	−23.7%**	ns	carboxymethylascochlorin, and ascofuranone exhibits an effect of decreasing serum	–	–	–	44.8 ± 1.4 g	385.5 ± 40.9 mg/dL	−29.9%**	ns	mesenteric artery, disappearance of fat deposition is accelerated.
CC(/C=C/C1(C)C(C)CCC(=O)C1C)=C\Cc1c(O)c(C=O)c(C)c(Cl)c1OC(=O)c1cccnc1 (stereo not drawn) [AS-103, 4-0-nicotinoyl ascochlorin]	18.4 ± 0.3 g	181.8 ± 7.6 mg/dL	−13.9%*	−12.0%**	–	–	–	–	42.0 ± 1.9 g	331.3 ± 45.2 mg/dL	−39.7%**	ns	–
